Data taken from ChEMBL document CHEMBL5154650, “Identification and optimization of biphenyl derivatives as novel tubulin inhibitors targeting colchicine-binding site overcoming multidrug resistance” (Eur J Med Chem, 2022).
Values belong to the compound of their own block, whether it stands above or below them.

What was measured:
A549 [1] = experiment: Antiproliferative activity against human A549 cells measured after 72 hrs by SRB assay; format: functional, cell-based
4T1 [2] = experiment: Antitumor activity against mouse 4T1 cells xenografted in female BALB/c mouse assessed as T/C at 10 mg/kg, ip administered every other day for 14 days; format: functional; conditions: time 14 day
[3] = Antiproliferative activity against human KB/VCR cells measured after 72 hrs by SRB assay; format: functional, cell-based
4T1 [4] = experiment: Antiproliferative activity against mouse 4T1 cells measured after 72 hrs by SRB assay; format: functional, cell-based; conditions: 4T1, 72 h
HeLa = experiment: Antiproliferative activity against human HeLa cells measured after 72 hrs by SRB assay; format: functional, cell-based
HT-1080 = experiment: Antiproliferative activity against human HT-1080 cells measured after 72 hrs by SRB assay; format: functional, cell-based; conditions: HT-1080, 72 h
[5] = Metabolic stability in human liver microsomes assessed as intrinsic clearance at 1 uM in presence of NADPH measured by LC-MS/MS analysis; format: ADME, Microsome
[6] = Toxicity in female BALB/c mouse xenografted with mouse 4T1 cells assessed as body weight loss at 5 mg/kg, ip administered every other day for 14 days and measured after 7 days; format: organism-based; conditions: in vivo, 336 h, time 14 day
A549 [7] = experiment: Induction of cell cycle arrest in human A549 cells assessed as accumulation at G2/M phase at 20 nM measured propidium iodide based flow cytometry analysis; format: functional
K562 = experiment: Antiproliferative activity against human K562 cells measured after 72 hrs by SRB assay; format: functional, cell-based; conditions: K562, 72 h
[8] = Resistant index, ratio IC50 for KB/VCR cells over IC50 for KB cells; format: functional
4T1 [9] = experiment: Antitumor activity against mouse 4T1 cells xenografted in female BALB/c mouse assessed as T/C at 5 mg/kg, ip administered every other day for 14 days; format: functional; conditions: time 14 day
K562/Adr = experiment: Antiproliferative activity against human K562/Adr cells measured after 72 hrs by SRB assay; format: functional, cell-based
THP-1 = experiment: Antiproliferative activity against human THP-1 cells measured after 72 hrs by SRB assay; format: functional, cell-based; conditions: THP-1, 72 h
KB-V1 = experiment: Antiproliferative activity against human KB-V1 cells measured after 72 hrs by SRB assay; format: functional, cell-based; conditions: KB-V1, 72 h
KB = experiment: Antiproliferative activity against human KB cells measured after 72 hrs by SRB assay; format: functional, cell-based
[10] = Resistant index, ratio IC50 for KB-V1 cells over IC50 for KB cells; format: functional
[11] = Resistant index, ratio IC50 for K562/Adr cells over IC50 for K562 cells; format: functional
RAW264.7 = experiment: Antiproliferative activity against mouse RAW264.7 cells measured after 72 hrs by SRB assay; format: functional, cell-based; conditions: RAW264.7, 72 h
[12] = Antiproliferative activity against human MRC9 cells measured after 72 hrs by SRB assay; format: functional, cell-based; conditions: MRC9, 72 h
HL-60 = experiment: Antiproliferative activity against human HL-60 cells measured after 72 hrs by SRB assay; format: functional, cell-based; conditions: HL-60, 72 h

Compound: COc1cc(C#N)cc(-c2ccc(C(=O)c3ccccc3)c(N)c2)c1
IC50 (A549 [1]; a549): 6 nM

Compound: COc1cc(C#N)cc(-c2ccc(C(=O)c3ccccc3)cc2F)c1
IC50 (A549 [1]; Homo sapiens, A549, 72 h): 3890 nM

Compound: Nc1c(F)cc(Cl)cc1-c1ccc(C(=O)c2ccccc2)cc1
IC50 (A549 [1]; Homo sapiens, A549, 72 h): > 10000 nM

Compound: CC(=O)O[C@H]1C(=O)[C@@]2(C)[C@H]([C@H](OC(=O)c3ccccc3)[C@]3(O)C[C@H](OC(=O)[C@H](O)[C@@H](NC(=O)c4ccccc4)c4ccccc4)C(C)=C1C3(C)C)[C@]1(OC(C)=O)CO[C@@H]1C[C@@H]2O [PACLITAXEL]
T/C (4T1 [2]): 49.2%

Compound: COc1cc(C#N)cc(-c2ccc(C(=O)c3ccccc3N)cc2)c1
IC50 (A549 [1]; Homo sapiens, A549, 72 h): 1390 nM

Compound: O=C(c1ccccc1)c1ccc(-c2ccccc2)cc1
IC50 (A549 [1]; Homo sapiens, A549, 72 h): > 10000 nM

Compound: COc1cc(C#N)cc(-c2ccc(C(=O)c3ccco3)cc2)c1
IC50 (A549 [1]; Homo sapiens, A549, 72 h): > 10000 nM

Compound: COc1cc(C#N)cc(-c2ccc(C(=O)c3ccccc3)c(N)c2)c1.Cl
IC50 [3]: 6.1 nM
IC50 (4T1 [4]): 7.7 nM
IC50 (HeLa): 4.2 nM
IC50 (HT-1080): 6.3 nM
CLH [5]: 0.581 mL/min/g
Activity [6]: Non-Toxic
Activity (A549 [7]): 90%
IC50 (K562): 7.8 nM
Ratio IC50 [8]: 1
T/C (4T1 [9]): 29.9%
IC50 (K562/Adr): 7.1 nM
IC50 (THP-1): 7.4 nM
IC50 (KB-V1): 6.3 nM
IC50 (KB): 6.3 nM
Ratio IC50 [10]: 1
IC50 (A549 [1]; Homo sapiens, A549, 72 h): 5 nM
Ratio IC50 [11]: 0.9
IC50 (RAW264.7): 7.6 nM
IC50 [12]: 166 nM
IC50 (HL-60): 6.8 nM

Compound: O=C(c1ccccc1)c1ccc(-c2cc(C(F)(F)F)cc(C(F)(F)F)c2)cc1
IC50 (A549 [1]; Homo sapiens, A549, 72 h): > 10000 nM

Compound: COc1cc(C#N)cc(-c2ccc(C(=O)c3ccc(O)cc3)cc2)c1
IC50 (A549 [1]; Homo sapiens, A549, 72 h): > 10000 nM

Second part, led by results:

IC50 (A549 [1]; Homo sapiens, A549, 72 h): 322 nM
Compound: COc1cc(C#N)cc(-c2ccc(C(=O)c3ccnc(OC)c3)cc2)c1

IC50 (A549 [1]; Homo sapiens, A549, 72 h): > 10000 nM
Compound: COc1cc(OC)c(OC)c(-c2ccc(C(=O)c3ccccc3)cc2)c1

IC50 (A549 [1]; Homo sapiens, A549, 72 h): 72 nM
Compound: COc1cc(OC)cc(C(=O)c2ccc(-c3cc(C#N)cc(OC)c3)cc2)c1

IC50 (A549 [1]; Homo sapiens, A549, 72 h): 78 nM
Compound: COc1cc(C#N)cc(-c2ccc(C(=O)c3cccc(O)c3)cc2)c1

IC50 (A549 [1]; Homo sapiens, A549, 72 h): > 10000 nM
Compound: COc1ccc(-c2ccc(C(=O)c3ccccc3)cc2)cc1

IC50 (A549 [1]; Homo sapiens, A549, 72 h): > 10000 nM
Compound: COc1cc(-c2ccc(C(=O)c3ccccc3)cc2)cc(OC)c1OC

IC50 (A549 [1]; Homo sapiens, A549, 72 h): 114 nM
Compound: COc1cc(C#N)cc(-c2ccc(C(=O)c3ccccc3)c(O)c2)c1

IC50 (A549 [1]; Homo sapiens, A549, 72 h): 1640 nM
Compound: COc1cc(C#N)cc(-c2ccc(C(=O)c3ccccn3)cc2)c1

IC50 (A549 [1]; Homo sapiens, A549, 72 h): 787 nM
Compound: N#Cc1cccc(-c2ccc(C(=O)c3ccccc3)cc2)c1

IC50 (KB-V1): 8570 nM
IC50 (KB): 6.7 nM
Compound: CC[C@]1(O)C[C@H]2CN(CCc3c([nH]c4ccccc34)[C@@](C(=O)OC)(c3cc4c(cc3OC)N(C=O)[C@H]3[C@@](O)(C(=O)OC)[C@H](OC(C)=O)[C@]5(CC)C=CCN6CC[C@]43[C@@H]65)C2)C1 [VINCRISTINE]
IC50 [3]: 2010 nM
Ratio IC50 [8]: 301
Ratio IC50 [10]: 1282.2

IC50 (A549 [1]; Homo sapiens, A549, 72 h): 1580 nM
Compound: CCOc1cccc(-c2ccc(C(=O)c3ccccc3)cc2)c1

IC50 (A549 [1]; Homo sapiens, A549, 72 h): 1190 nM
Compound: COc1cc(C#N)cc(-c2ccc(C(=O)c3cccs3)cc2)c1

IC50 (A549 [1]; Homo sapiens, A549, 72 h): 135 nM
Compound: COc1cc(C#N)cc(-c2ccc(C(=O)c3ccccc3O)cc2)c1

IC50 (A549 [1]; Homo sapiens, A549, 72 h): 306 nM
Compound: COc1cc(C#N)cc(-c2ccc(C(=O)c3ccccc3Cl)cc2)c1
